Article PMC9516332 (Frontiers in Oncology, 2022)
Where two headings read alike, the source gives them in different places.

Assays:
134 cancer cell lines = assay: Cell viability assay (ATPlite, 72 hours), IC50 on cancer cell line panel
[1] = biological target: panel of 255 wild-type kinases (Homo sapiens, UniProt Q15119); settings: kinase PDHK2; 1 µmol/L single concentration; ref DOI: 10.1158/1535-7163.MCT-18-0877; cited from earlier work
[2] = biological target: T1, panel of 255 wild-type kinases (Homo sapiens, UniProt O15264); settings: p38δ; 1 µmol/L single concentration; ref DOI: 10.1158/1535-7163.MCT-18-0877; cited from earlier work
T1 sequence (O15264 1-365): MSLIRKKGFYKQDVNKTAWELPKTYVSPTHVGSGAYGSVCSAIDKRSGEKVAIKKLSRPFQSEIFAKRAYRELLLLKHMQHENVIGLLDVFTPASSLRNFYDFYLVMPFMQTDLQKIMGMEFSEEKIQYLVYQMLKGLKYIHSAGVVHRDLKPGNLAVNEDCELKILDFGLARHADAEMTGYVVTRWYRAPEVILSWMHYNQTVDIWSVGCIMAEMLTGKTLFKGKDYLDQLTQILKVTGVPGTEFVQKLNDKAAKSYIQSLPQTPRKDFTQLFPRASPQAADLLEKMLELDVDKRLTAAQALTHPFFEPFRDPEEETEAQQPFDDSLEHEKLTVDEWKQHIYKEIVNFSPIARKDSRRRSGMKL

[3] = biological target: panel of 255 wild-type kinases (Homo sapiens, UniProt Q9UBS0); settings: p70S6Kβ; 1 µmol/L single concentration; ref DOI: 10.1158/1535-7163.MCT-18-0877; cited from earlier work
[4] = biological target: panel of 255 wild-type kinases (Homo sapiens, UniProt Q9P286); settings: PAK5; 1 µmol/L single concentration; ref DOI: 10.1158/1535-7163.MCT-18-0877; cited from earlier work
AP-1060 (ETV6-NTRK3) = assay: Cell viability assay; settings: read-out: IC50 in cell proliferation assay

Question: Which IC50 (134 cancer cell lines; Homo sapiens, MDA-MB-453, read-out: IC50 in cell proliferation assay) does the source give for `CCc1cc2c(cc1N1CCC(N3CCOCC3)CC1)C(C)(C)c1[nH]c3cc(C#N)ccc3c1C2=O` [alectinib] here?
Answer: > 10 µM

Question: What about the IC50 (134 cancer cell lines; Homo sapiens, MDA-MB-468, read-out: IC50 in cell proliferation assay) of the same compound?
Answer: > 10 µM

Question: And the IC50 (134 cancer cell lines; Homo sapiens, MG-63, read-out: IC50 in cell proliferation assay)?
Answer: > 10 µM

Question: What about the IC50 (134 cancer cell lines; Homo sapiens, MIA PaCa-2, read-out: IC50 in cell proliferation assay) of the same compound?
Answer: > 10 µM

Question: What about the IC50 (134 cancer cell lines; Homo sapiens, MKN-45, read-out: IC50 in cell proliferation assay) of the same compound?
Answer: > 10 µM

Question: What about the IC50 (134 cancer cell lines; Homo sapiens, MOLM-13, read-out: IC50 in cell proliferation assay) of the same compound?
Answer: 0.99 µM

Question: What about the IC50 (134 cancer cell lines; Homo sapiens, MOLT-4, read-out: IC50 in cell proliferation assay) of the same compound?
Answer: > 10 µM

Question: What about the IC50 (134 cancer cell lines; Homo sapiens, MV4-11, read-out: IC50 in cell proliferation assay) of the same compound?
Answer: 1.07 µM

Question: And the IC50 (134 cancer cell lines; Homo sapiens, MeWo, read-out: IC50 in cell proliferation assay)?
Answer: > 10 µM

Question: And the IC50 (134 cancer cell lines; Homo sapiens, NCCIT, read-out: IC50 in cell proliferation assay)?
Answer: > 3.16 µM

Question: And the IC50 (134 cancer cell lines; Homo sapiens, NCI-H82, read-out: IC50 in cell proliferation assay)?
Answer: > 10 µM

Question: And the IC50 (134 cancer cell lines; Homo sapiens, NCI-H460, read-out: IC50 in cell proliferation assay)?
Answer: > 10 µM

Question: What about the IC50 (134 cancer cell lines; Homo sapiens, NCI-H661, read-out: IC50 in cell proliferation assay) of the same compound?
Answer: > 10 µM

Question: What about the IC50 (134 cancer cell lines; Homo sapiens, NCI-H716, read-out: IC50 in cell proliferation assay) of the same compound?
Answer: 2.51 µM

Question: What about the IC50 (134 cancer cell lines; Homo sapiens, NCI-H1650, read-out: IC50 in cell proliferation assay) of the same compound?
Answer: 1.66 µM

Question: What about the IC50 (134 cancer cell lines; Homo sapiens, NCI-H1975, read-out: IC50 in cell proliferation assay) of the same compound?
Answer: 0.743 µM

Question: What about the IC50 (134 cancer cell lines; Homo sapiens, NCI-H2228, read-out: IC50 in cell proliferation assay) of the same compound?
Answer: 0.039 µM

Question: What about the IC50 (134 cancer cell lines; Homo sapiens, OVCAR-3, read-out: IC50 in cell proliferation assay) of the same compound?
Answer: > 10 µM

Question: And the IC50 (134 cancer cell lines; Homo sapiens, PFSK-1, read-out: IC50 in cell proliferation assay)?
Answer: 3.48 µM

Question: What about the IC50 (134 cancer cell lines; Homo sapiens, RL95-2, read-out: IC50 in cell proliferation assay) of the same compound?
Answer: 1.33 µM

Question: And the IC50 (134 cancer cell lines; Homo sapiens, RPMI-7951, read-out: IC50 in cell proliferation assay)?
Answer: > 10 µM

Question: And the IC50 (134 cancer cell lines; Homo sapiens, RS4-11, read-out: IC50 in cell proliferation assay)?
Answer: > 10 µM

Question: And the IC50 (134 cancer cell lines; Homo sapiens, Rec1, read-out: IC50 in cell proliferation assay)?
Answer: 1.24 µM

Question: What about the IC50 (134 cancer cell lines; Homo sapiens, SHP77, read-out: IC50 in cell proliferation assay) of the same compound?
Answer: > 10 µM

Question: And the IC50 (134 cancer cell lines; Homo sapiens, SK-BR-3, read-out: IC50 in cell proliferation assay)?
Answer: > 10 µM

Question: What about the IC50 (134 cancer cell lines; Homo sapiens, SK-N-AS, read-out: IC50 in cell proliferation assay) of the same compound?
Answer: 7.73 µM

Question: What about the IC50 (134 cancer cell lines; Homo sapiens, SK-N-FI, read-out: IC50 in cell proliferation assay) of the same compound?
Answer: 7.44 µM

Question: What about the IC50 (134 cancer cell lines; Homo sapiens, SK-N-MC, read-out: IC50 in cell proliferation assay) of the same compound?
Answer: > 10 µM

Question: And the IC50 (134 cancer cell lines; Homo sapiens, SK-N-SH, read-out: IC50 in cell proliferation assay)?
Answer: 2.43 µM

Question: What about the IC50 (134 cancer cell lines; Homo sapiens, SNU-5, read-out: IC50 in cell proliferation assay) of the same compound?
Answer: > 10 µM

Question: And the IC50 (134 cancer cell lines; Homo sapiens, SNU-16, read-out: IC50 in cell proliferation assay)?
Answer: > 10 µM

Question: And the IC50 (134 cancer cell lines; Homo sapiens, SNU-C2B, read-out: IC50 in cell proliferation assay)?
Answer: > 10 µM

Question: What about the IC50 (134 cancer cell lines; Homo sapiens, SU-DHL-1, read-out: IC50 in cell proliferation assay) of the same compound?
Answer: 0.432 µM

Question: What about the IC50 (134 cancer cell lines; Homo sapiens, SU-DHL-6, read-out: IC50 in cell proliferation assay) of the same compound?
Answer: > 10 µM

Question: And the IC50 (134 cancer cell lines; Homo sapiens, SUP-T1, read-out: IC50 in cell proliferation assay)?
Answer: > 10 µM

Question: What about the IC50 (134 cancer cell lines; Homo sapiens, SW48, read-out: IC50 in cell proliferation assay) of the same compound?
Answer: > 10 µM

Question: What about the IC50 (134 cancer cell lines; Homo sapiens, SW480, read-out: IC50 in cell proliferation assay) of the same compound?
Answer: > 10 µM

Question: And the IC50 (134 cancer cell lines; Homo sapiens, SW626, read-out: IC50 in cell proliferation assay)?
Answer: > 10 µM

Question: What about the IC50 (134 cancer cell lines; Homo sapiens, SW780, read-out: IC50 in cell proliferation assay) of the same compound?
Answer: 1.67 µM

Question: And the IC50 (134 cancer cell lines; Homo sapiens, SW837, read-out: IC50 in cell proliferation assay)?
Answer: > 10 µM

Question: And the IC50 (134 cancer cell lines; Homo sapiens, SW872, read-out: IC50 in cell proliferation assay)?
Answer: > 10 µM

Question: And the IC50 (134 cancer cell lines; Homo sapiens, SW900, read-out: IC50 in cell proliferation assay)?
Answer: > 10 µM

Question: And the IC50 (134 cancer cell lines; Homo sapiens, SW948, read-out: IC50 in cell proliferation assay)?
Answer: > 10 µM

Question: And the IC50 (134 cancer cell lines; Homo sapiens, SW982, read-out: IC50 in cell proliferation assay)?
Answer: > 10 µM

Question: And the IC50 (134 cancer cell lines; Homo sapiens, SW-620, read-out: IC50 in cell proliferation assay)?
Answer: > 10 µM

Question: What about the IC50 (134 cancer cell lines; Homo sapiens, T98G, read-out: IC50 in cell proliferation assay) of the same compound?
Answer: > 10 µM

Question: And the IC50 (134 cancer cell lines; Homo sapiens, TCC-SUP, read-out: IC50 in cell proliferation assay)?
Answer: 3.7 µM

Question: What about the IC50 (134 cancer cell lines; Homo sapiens, THP-1, read-out: IC50 in cell proliferation assay) of the same compound?
Answer: > 10 µM

Question: And the IC50 (134 cancer cell lines; Homo sapiens, U2OS, read-out: IC50 in cell proliferation assay)?
Answer: 3.79 µM

Question: What about the IC50 (134 cancer cell lines; Homo sapiens, U-87 MG, read-out: IC50 in cell proliferation assay) of the same compound?
Answer: 3.1 µM

Question: And the IC50 (134 cancer cell lines; Homo sapiens, U-118-MG, read-out: IC50 in cell proliferation assay)?
Answer: 3.33 µM

Question: What about the IC50 (134 cancer cell lines; Homo sapiens, UMUC3, read-out: IC50 in cell proliferation assay) of the same compound?
Answer: 3.3 µM

Question: And the IC50 (134 cancer cell lines; Hs766T, read-out: IC50 in cell proliferation assay)?
Answer: > 10 µM

Question: And the IC50 (134 cancer cell lines; L-82, read-out: IC50 in cell proliferation assay)?
Answer: 0.037 µM

Question: And the IC50 (134 cancer cell lines; Rh30, read-out: IC50 in cell proliferation assay)?
Answer: > 10 µM

Question: And the “%-inhibition at 1 µmol/L, PDHK2” value [1]?
Answer: 0.393%

Question: And the “%-inhibition, p38δ” value [2]?
Answer: 0.128%

Question: And the “%-inhibition, p70S6Kβ” value [3]?
Answer: 9%

Question: What about the “%-inhibition, PAK5” value [4] of the same compound?
Answer: 8%

Question: What about the IC50 (AP-1060 (ETV6-NTRK3)) of the same compound?
Answer: 1.13 µM
